Reference: patent publication US9682995B2, “Amino-substituted isothiazoles” (BAYER PHARMA AKTIENGESELLSCHAFT, priority 2013, dated 2017)

Legend:
Type in all cases: cell-based
B16F10 = experiment: Proliferation assay (crystal violet), B16F10; conditions: Mus musculus, B16-F10, 96 h; B16F10, 4 days; read-out: Inhibition of proliferation IC50 B16F10
Experimental: (§1) Cultivated tumor cells (cells were ordered from ATCC, except HeLa-MaTu and HeLa-MaTu-ADR, which were ordered from EPO-GmbH, Berlin) were plated at a density of 1000 to 5000 cells/well, depending on the growth rate of the respective cell line, in a 96-well multititer plate in 200 μL of their respective growth medium supplemented 10% fetal calf serum. After 24 hours, the cells of one plate (zero-point plate) were stained with crystal violet (see below), while the medium of the other plates was replaced by fresh culture medium (200 μl), to which the test substances were added in various concentrations (0 μM, as well as in the range of 0.001-10 μM; the final concentration of the solvent dimethyl sulfoxide was 0.5%). The cells were incubated for 4 days in the presence of test substances. Cell proliferation was determined by staining the cells with crystal violet: the cells were fixed by adding 20 μl/measuring point of an 11% glutaric aldehyde solution for 15 minutes at room temperature. After three washing cycles of the fixed cells with water, the plates were dried at room temperature. The cells were stained by adding 100 μl/measuring point of a 0.1% crystal violet solution (pH 3.0). After three washing cycles of the stained cells with water, the plates were dried at room temperature. The dye was dissolved by adding 100 μl/measuring point of a 10% acetic acid solution. Absorption was determined by photometry at a wavelength of 595 nm. The change of cell number, in percent, was calculated by normalization of the measured values to the absorption values of the zero-point plate (=0%) and the absorption of the untreated (0 μm) cells (=100%). The IC50 values were determined by means of a 4 parameter fit.

Caco2 = experiment: Proliferation assay (crystal violet), Caco2; conditions: Homo sapiens, Caco-2, 96 h; Caco2, 4 days; read-out: Inhibition of proliferation IC50 Caco2
Experimental: as §1

NCI-H460 = experiment: Proliferation assay (crystal violet), NCI-H460; conditions: Homo sapiens, 96 h; NCI-H460, 4 days; read-out: Inhibition of proliferation IC50 NCI-H460
Experimental: as §1

DU145 = experiment: Proliferation assay (crystal violet), DU145; conditions: Homo sapiens, DU-145, 96 h; DU145, 4 days; read-out: Inhibition of proliferation IC50 DU145
Experimental: as §1

HeLa-MaTu-ADR = experiment: Proliferation assay (crystal violet), HeLa-MaTu-ADR; conditions: 96 h, 4 days, read-out: Inhibition of proliferation IC50 HeLa-MaTu-ADR
Experimental: as §1

Row | Compound | IC50 (B16F10) | IC50 (Caco2) | IC50 (NCI-H460) | IC50 (DU145) | IC50 (HeLa-MaTu-ADR)
1 | CCc1ccccc1NC(=O)c1c(C)nsc1Nc1cc(C#N)ccn1 [Example 4, 5-[(4-Cyanopyridin-2-yl)amino]-N-(2-ethylphenyl)-3-methyl-1,2-thiazole-4-carboxamide] | 2700 nM | 2400 nM | 2000 nM | 6900 nM | 1800 nM
2 | Cc1nsc(Nc2cnc(Cl)cn2)c1C(=O)Nc1ccc(F)c(F)c1 [Example 74, 5-[(5-Chloropyrazin-2-yl)amino]-N-(3,4-difluorophenyl)-3-methyl-1,2-thiazole-4-carboxamide] | 170 nM | 160 nM | 120 nM | 190 nM | 130 nM
3 | CCNC(=O)c1cncc(Nc2snc(C)c2C(=O)Nc2ccc(F)c(F)c2)n1 [Example 73, 6-({4-[(3,4-Difluorophenyl)carbamoyl]-3-methyl-1,2-thiazol-5-yl}amino)-N-ethylpyrazine-2-carboxamide] | 390 nM | 320 nM | 620 nM | 510 nM | 100 nM
4 | Cc1nsc(Nc2cnc3cc(C(F)(F)F)ccc3n2)c1C(=O)Nc1ccc(Cl)c(F)c1 [Example 68, N-(4-Chloro-3-fluorophenyl)-3-methyl-5-{[6-(trifluoromethyl)quinoxalin-2-yl]amino}-1,2-thiazole-4-carboxamide] | 330 nM | 240 nM | 350 nM | 570 nM | 320 nM
5 | Cc1nsc(Nc2cncc(-n3cccn3)n2)c1C(=O)Nc1ccc(Cl)c(F)c1 [Example 67, N-(4-Chloro-3-fluorophenyl)-3-methyl-5-{[6-(1H-pyrazol-1-yl)pyrazin-2-yl]amino}-1,2-thiazole-4-carboxamide] | 160 nM | 210 nM | 210 nM | 320 nM | 180 nM
6 | Cc1nsc(Nc2cnc3cc(C(F)(F)F)ccc3n2)c1C(=O)Nc1ccc(F)c(F)c1 [Example 60, N-(3,4-Difluorophenyl)-3-methyl-5-{[6-(trifluoromethyl)quinoxalin-2-yl]amino}-1,2-thiazole-4-carboxamide] | 250 nM | 220 nM | 230 nM | 430 nM | 240 nM
7 | Cc1nsc(Nc2cncc(Cl)n2)c1C(=O)Nc1ccc(F)c(F)c1 [Example 71, 5-[(6-Chloropyrazin-2-yl)amino]-N-(3,4-difluorophenyl)-3-methyl-1,2-thiazole-4-carboxamide] | 220 nM | 240 nM | 180 nM | 430 nM | 230 nM
8 | Cc1nsc(Nc2cncc(-n3cccn3)n2)c1C(=O)Nc1ccc(F)c(F)c1 [Example 64, N-(3,4-Difluorophenyl)-3-methyl-5-{[6-(1H-pyrazol-1-yl)pyrazin-2-yl]amino}-1,2-thiazole-4-carboxamide] | 470 nM | 720 nM | 260 nM | 470 nM | 270 nM
9 | Cc1nsc(Nc2ccc(C#N)cn2)c1C(=O)Nc1ccc(Cl)c(Cl)c1 [Example 62, 5-[(5-Cyanopyridin-2-yl)amino]-N-(3,4-dichlorophenyl)-3-methyl-1,2-thiazole-4-carboxamide] | 140 nM | 190 nM | 140 nM | 290 nM | –

Second part, the compound after the results:

Row | IC50 (B16F10) | IC50 (Caco2) | IC50 (NCI-H460) | IC50 (DU145) | IC50 (HeLa-MaTu-ADR) | Compound
10 | 220 nM | 180 nM | 180 nM | 280 nM | 94 nM | Cc1nsc(Nc2cnc(Br)cn2)c1C(=O)Nc1ccc(F)c(F)c1 [Example 77, 5-[(5-Bromopyrazin-2-yl)amino]-N-(3,4-difluorophenyl)-3-methyl-1,2-thiazole-4-carboxamide]
11 | 200 nM | 210 nM | 240 nM | 680 nM | 230 nM | Cc1nsc(Nc2cnc(C(F)(F)F)cn2)c1C(=O)Nc1ccc(F)c(F)c1 [Example 81, N-(3,4-Difluorophenyl)-3-methyl-5-{[5-(trifluoromethyl)pyrazin-2-yl]amino}-1,2-thiazole-4-carboxamide]
12 | 320 nM | 310 nM | 170 nM | 510 nM | 260 nM | CCc1ccccc1NC(=O)c1c(C)nsc1Nc1cnc2cc(Cl)ccc2n1 [Example 86, 5-[(6-Chloroquinoxalin-2-yl)amino]-N-(2-ethylphenyl)-3-methyl-1,2-thiazole-4-carboxamide]
13 | 510 nM | 350 nM | 340 nM | 650 nM | 350 nM | CCc1cnc(Nc2snc(C)c2C(=O)Nc2ccc(F)c(F)c2)cn1 [Example 79, N-(3,4-Difluorophenyl)-5-[(5-ethylpyrazin-2-yl)amino]-3-methyl-1,2-thiazole-4-carboxamide]
14 | 140 nM | 170 nM | 56 nM | 270 nM | 130 nM | Cc1nsc(Nc2cncc(C(F)(F)F)n2)c1C(=O)Nc1ccc(F)c(F)c1 [Example 82, N-(3,4-Difluorophenyl)-3-methyl-5-{[6-(trifluoromethyl)pyrazin-2-yl]amino}-1,2-thiazole-4-carboxamide]
15 | 3000 nM | 1300 nM | 2900 nM | 2900 nM | 530 nM | CNC(=O)c1cnc(Nc2snc(C)c2C(=O)Nc2ccc(F)c(F)c2)cn1 [Example 75, 5-({4-[(3,4-Difluorophenyl)carbamoyl]-3-methyl-1,2-thiazol-5-yl}amino)-N-methylpyrazine-2-carboxamide]
16 | 500 nM | 370 nM | 420 nM | 700 nM | 360 nM | COc1ccc(NC(=O)c2c(C)nsc2Nc2cnc(C(F)(F)F)cn2)cn1 [Example 85, N-(6-methoxypyridin-3-yl)-3-methyl-5-{[5-(trifluoromethyl)pyrazin-2-yl]amino}-1,2-thiazole-4-carboxamide]
17 | 290 nM | 240 nM | 180 nM | 840 nM | 330 nM | COc1ccc(NC(=O)c2c(C)nsc2Nc2cncc(C(F)(F)F)n2)cn1 [Example 84, N-(6-methoxypyridin-3-yl)-3-methyl-5-{[6-(trifluoromethyl)pyrazin-2-yl]amino}-1,2-thiazole-4-carboxamide]
18 | 250 nM | 350 nM | 260 nM | 740 nM | 370 nM | Cc1nsc(Nc2ccc(C(F)(F)F)nn2)c1C(=O)Nc1ccc(F)c(F)c1 [Example 83, N-(3,4-Difluorophenyl)-3-methyl-5-{[6-(trifluoromethyl)pyridazin-3-yl]amino}-1,2-thiazole-4-carboxamide]
19 | 2000 nM | 1500 nM | 3000 nM | 3000 nM | 1100 nM | CCNc1cncc(Nc2snc(C)c2C(=O)Nc2ccc(F)c(F)c2)n1 [Example 78, N-(3,4-Difluorophenyl)-5-{[6-(ethylamino)pyrazin-2-yl]amino}-3-methyl-1,2-thiazole-4-carboxamide]
